{
  "source": "patent US7256268B1",
  "about": "“Human high affinity choline transporter” (University of Florida Research Foundation, priority 2000, dated 2007)",
  "key": {"human HACT": {"target": "T1, human HACT (Homo sapiens, UniProt Q9GZV3)", "T1 construct": "expressed in transfected cells; host or cells: 293, HELA and SF9 cells (pcDNA, AAV proviral and baculoviral vectors)", "T1 sequence (Q9GZV3 1-580)": "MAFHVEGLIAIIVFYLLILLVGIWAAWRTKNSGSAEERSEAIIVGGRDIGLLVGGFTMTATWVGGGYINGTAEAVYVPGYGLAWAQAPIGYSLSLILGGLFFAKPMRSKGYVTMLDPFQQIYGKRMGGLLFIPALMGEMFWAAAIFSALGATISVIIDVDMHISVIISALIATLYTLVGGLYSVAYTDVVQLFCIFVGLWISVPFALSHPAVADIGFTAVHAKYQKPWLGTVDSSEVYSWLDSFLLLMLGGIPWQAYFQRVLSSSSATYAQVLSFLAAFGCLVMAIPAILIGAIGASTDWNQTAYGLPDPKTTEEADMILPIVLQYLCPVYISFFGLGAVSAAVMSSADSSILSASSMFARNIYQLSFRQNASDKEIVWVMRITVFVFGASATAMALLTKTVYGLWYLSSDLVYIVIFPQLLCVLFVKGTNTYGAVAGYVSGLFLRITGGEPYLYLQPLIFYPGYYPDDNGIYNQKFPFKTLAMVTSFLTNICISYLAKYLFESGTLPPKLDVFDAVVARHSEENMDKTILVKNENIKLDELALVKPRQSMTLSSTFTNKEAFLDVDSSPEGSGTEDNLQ", "experiment": "transporter assay for high affinity choline uptake (tritiated choline chloride) in transfected or infected cells", "format": "cell-based", "details": "10 nM of Hemicholinium-3; cells expressing recombinant human HACT (FIG. 1: SF9 cells), 27° C., 30 min", "procedure": "A transporter assay for high affinity choline uptake was carried out using 293, HELA, and SF9 cells that had been transfected or infected with expression vectors (several eukaryotic expression vectors including pcDNA, AAV proviral vector, and Baculoviral vectors were used) either with or without a cDNA encoding human HACT. Briefly, 2×10^5 cells were incubated with tritiated choline chloride and various amounts of Hemicholinium-3 in 500 microliter media (20 mM HEPES, pH 7.4, 140 mM NaCl, 4 mM KCl, 1 mM MgCl2, 1 mM CaCl2) at 27° C. for 30 min in each transporter assay. The cells were then pelleted and washed three times before they were solublized in 1N NaOH and the tritium content determined by liquid scintillation counting. […] Furthermore, the HACT activity was sensitive to 10 nM of Hemicholinium-3, which is characteristic of high affinity choline transporter. See e.g. Okuda et al. Nat. Neurosci. 3:120-5 (2000)."}, "[1]": {"tested_on": "low affinity choline transporter, LACT", "details": "synaptosome preparations; cited from earlier work"}},
  "data": [
    {"smiles": "C[N+]1(C)CCOC(O)(c2ccc(-c3ccc(C4(O)C[N+](C)(C)CCO4)cc3)cc2)C1.[Br-].[Br-]", "note": "(centres unmarked) [hemicholinium-3]", "values": [
      {"measurement": "sensitivity of HACT activity to Hemicholinium-3", "setting": "human HACT", "value": "sensitive"},
      {"measurement": "sensitivity of the low affinity uptake system to hemicholinium-3", "setting": "[1]", "value": "insensitive"}
    ]}
  ]
}
